Laboratory results reported in PubChem BioAssay AID1963865 (Molecular Pharmacology Branch, DTP, NCI, 2024).

System: KRAS PDC multicell spheroid viability
Assay: Anticancer human tumor 825966-067-R-J1-PDC patient-derived colon carcinoma cell line growth inhibition [KRAS2]
Conditions: for IC50: curve of first compound; for viability, T/C: stronger effect = lower value
Method in brief: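 Combination screen of spheroid viability in tumor-cell co-cultures with endothelial (HUVEC) and mesenchymal stem cell stroma. Each agent was tested in half-log dilutions, topping at clinical Cmax or at 10 microM without a known Cmax.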

[1] = second compound 0.1 µM, first compound 0.0316 µM
[2] = second compound 0.1 µM, first compound 0.1 µM
[3] = second compound 0.1 µM, first compound 0.316 µM
[4] = second compound 0.1 µM, first compound 1 µM
[5] = second compound 0.1 µM, first compound 3.16 µM
[6] = second compound 0.316 µM, first compound 0.0316 µM
[7] = second compound 0.316 µM, first compound 0.1 µM
[8] = second compound 0.316 µM, first compound 0.316 µM
[9] = second compound 0.316 µM, first compound 1 µM
[10] = second compound 0.316 µM, first compound 3.16 µM
[11] = second compound 1 µM, first compound 0.0316 µM
[12] = second compound 1 µM, first compound 0.1 µM
[13] = second compound 1 µM, first compound 0.316 µM
[14] = second compound 1 µM, first compound 1 µM
[15] = second compound 1 µM, first compound 3.16 µM
[16] = second compound 3.16 µM, first compound 0.0316 µM
[17] = second compound 3.16 µM, first compound 0.1 µM
[18] = second compound 3.16 µM, first compound 0.316 µM
[19] = second compound 3.16 µM, first compound 1 µM
[20] = second compound 3.16 µM, first compound 3.16 µM
[21] = second compound 10 µM, first compound 0.0316 µM
[22] = second compound 10 µM, first compound 0.1 µM
[23] = second compound 10 µM, first compound 0.316 µM
[24] = second compound 10 µM, first compound 1 µM
[25] = second compound 10 µM, first compound 3.16 µM
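Also: spheroids exposed to compounds for 7 days.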
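For viability, T/C in this document: 100% = DMSO vehicle control viability.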

CC1COCCN1c1cc(-c2ccnn2C)c2ccnc(-c3ccn[nH]3)c2n1 (stereo not given) + C=CC(=O)N1CCN(c2nc(=O)n(-c3c(C)ccnc3C(C)C)c3nc(-c4c(O)cccc4F)c(F)cc23)C(C)C1
IC50 (second compound 0.1 µM): 0.308 µM | IC50 (second compound 0.316 µM): > 3.16 µM | IC50 (second compound 1 µM): 0.263 µM | IC50 (second compound 3.16 µM): 3.16 µM | IC50 (second compound 10 µM): > 3.16 µM | viability, T/C (second compound 0.1 µM, first compound 0.01 µM): 110% | viability, T/C [1]: 135% | viability, T/C [2]: 123% | viability, T/C [3]: 41.5% | viability, T/C [4]: 56.2% | viability, T/C [5]: 47.4% | viability, T/C (second compound 0.316 µM, first compound 0.01 µM): 137% | viability, T/C [6]: 142% | viability, T/C [7]: 72.9% | viability, T/C [8]: 60.3% | viability, T/C [9]: 44.9% | viability, T/C [10]: 60.4% | viability, T/C (second compound 1 µM, first compound 0.01 µM): 137% | viability, T/C [11]: 125% | viability, T/C [12]: 71% | viability, T/C [13]: 41.5% | viability, T/C [14]: 51.1% | viability, T/C [15]: 41.4% | viability, T/C (second compound 3.16 µM, first compound 0.01 µM): 106% | viability, T/C [16]: 146% | viability, T/C [17]: 70.4% | viability, T/C [18]: 70.8% | viability, T/C [19]: 51.2% | viability, T/C [20]: 43% | viability, T/C (second compound 10 µM, first compound 0.01 µM): 137% | viability, T/C [21]: 108% | viability, T/C [22]: 64.6% | viability, T/C [23]: 75.8% | viability, T/C [24]: 59.1% | viability, T/C [25]: 47.2%

CC1OCC2(CCN(c3cnc(Sc4ccnc(N)c4Cl)c(N)n3)CC2)C1N (stereo not given) + C=CC(=O)N1CCN(c2nc(=O)n(-c3c(C)ccnc3C(C)C)c3nc(-c4c(O)cccc4F)c(F)cc23)C(C)C1
IC50 (second compound 0.1 µM): 9.58 µM | IC50 (second compound 0.316 µM): 6.95 µM | IC50 (second compound 1 µM): 7.78 µM | IC50 (second compound 3.16 µM): 6.05 µM | IC50 (second compound 10 µM): 4.49 µM | viability, T/C [1]: 78.4% | viability, T/C [2]: 66.8% | viability, T/C [3]: 98.4% | viability, T/C [4]: 85% | viability, T/C [5]: 94.1% | viability, T/C (second compound 0.1 µM, first compound 10 µM): 48.6% | viability, T/C [6]: 82.8% | viability, T/C [7]: 96.1% | viability, T/C [8]: 79.4% | viability, T/C [9]: 78.3% | viability, T/C [10]: 94.1% | viability, T/C (second compound 0.316 µM, first compound 10 µM): 33.3% | viability, T/C [11]: 82.1% | viability, T/C [12]: 69.3% | viability, T/C [13]: 74.8% | viability, T/C [14]: 75.5% | viability, T/C [15]: 76.3% | viability, T/C (second compound 1 µM, first compound 10 µM): 43.1% | viability, T/C [16]: 93.5% | viability, T/C [17]: 70.1% | viability, T/C [18]: 83.2% | viability, T/C [19]: 81% | viability, T/C [20]: 90.4% | viability, T/C (second compound 3.16 µM, first compound 10 µM): 23.9% | viability, T/C [21]: 80.5% | viability, T/C [22]: 74.3% | viability, T/C [23]: 106% | viability, T/C [24]: 92.9% | viability, T/C [25]: 70.1% | viability, T/C (second compound 10 µM, first compound 10 µM): 4.36%
